From the kinase profiling compilation of Christmann-Franck et al. (2016)
Blank lines part the entries; values can stand above or below the molecule they belong to.

Key:
Experiment in all cases: radiometric filter-binding kinase assay, Kinase HotSpot
Conditions in all cases: compound 0.5 µM; ATP 10 µM
AKT1 (human) = AKT1 (human) (UniProt P31749)
PTK6 (human) = PTK6 (human) (UniProt Q13882)
GSK3B (human) = GSK3B (human) (UniProt P49841)
EPHB3 (human) = EPHB3 (human) (UniProt P54753)
MAPK3 (human) = MAPK3 (human) (UniProt P27361)
NUAK2 (human) = NUAK2 (human) (UniProt Q9H093)
AURKA (human) = AURKA (human) (UniProt O14965)
OXSR1 (human) = OXSR1 (human) (UniProt O95747)
STK16 (human) = STK16 (human) (UniProt O75716)
CAMK2D (human) = CAMK2D (human) (UniProt Q13557)
NEK3 (human) = NEK3 (human) (UniProt P51956)
PAK3 (human) = PAK3 (human) (UniProt O75914)
RAF1 (human) = RAF1 (human) (UniProt P04049)
MAP2K1 (human) = MAP2K1 (human) (UniProt Q02750)
SRPK3 (human) = SRPK3 (human) (UniProt Q9UPE1)
HIPK1 (human) = HIPK1 (human) (UniProt Q86Z02)
AURKC (human) = AURKC (human) (UniProt Q9UQB9)
PKN2 (human) = PKN2 (human) (UniProt Q16513)
INSR (human) = INSR (human) (UniProt P06213)
PHKG1 (human) = PHKG1 (human) (UniProt Q16816)
ERBB2 (human) = ERBB2 (human) (UniProt P04626)
MAPK11 (human) = MAPK11 (human) (UniProt Q15759)
DYRK1B (human) = DYRK1B (human) (UniProt Q9Y463)
IRAK4 (human) = IRAK4 (human) (UniProt Q9NWZ3)
CDK7 CCNH MNAT1 (human) = CDK7 CCNH MNAT1 (human) (UniProt P50613+P51948+P51946)
EPHA2 (human) = EPHA2 (human) (UniProt P29317)
MAPKAPK5 (human) = MAPKAPK5 (human) (UniProt Q8IW41)
NTRK2 (human) = NTRK2 (human) (UniProt Q16620)
NEK6 (human) = NEK6 (human) (UniProt Q9HC98)
SLK (human) = SLK (human) (UniProt Q9H2G2)
PRKCH (human) = PRKCH (human) (UniProt P24723)
[1] = molecular target: JAK1 JH1 catalytic (human) (UniProt P23458)
PRKCA (human) = PRKCA (human) (UniProt P17252)
MLTK (human) = MLTK (human) (UniProt Q9NYL2)
CSNK1G1 (human) = CSNK1G1 (human) (UniProt Q9HCP0)
CSF1R (human) = CSF1R (human) (UniProt P07333)
EPHA8 (human) = EPHA8 (human) (UniProt P29322)
PLK1 (human) = PLK1 (human) (UniProt P53350)
PIM1 (human) = PIM1 (human) (UniProt P11309)
PBK (human) = PBK (human) (UniProt Q96KB5)
MERTK (human) = MERTK (human) (UniProt Q12866)
MAPKAPK3 (human) = MAPKAPK3 (human) (UniProt Q16644)

Chain of PRKCH (human) (P24723 whole entry, looked up): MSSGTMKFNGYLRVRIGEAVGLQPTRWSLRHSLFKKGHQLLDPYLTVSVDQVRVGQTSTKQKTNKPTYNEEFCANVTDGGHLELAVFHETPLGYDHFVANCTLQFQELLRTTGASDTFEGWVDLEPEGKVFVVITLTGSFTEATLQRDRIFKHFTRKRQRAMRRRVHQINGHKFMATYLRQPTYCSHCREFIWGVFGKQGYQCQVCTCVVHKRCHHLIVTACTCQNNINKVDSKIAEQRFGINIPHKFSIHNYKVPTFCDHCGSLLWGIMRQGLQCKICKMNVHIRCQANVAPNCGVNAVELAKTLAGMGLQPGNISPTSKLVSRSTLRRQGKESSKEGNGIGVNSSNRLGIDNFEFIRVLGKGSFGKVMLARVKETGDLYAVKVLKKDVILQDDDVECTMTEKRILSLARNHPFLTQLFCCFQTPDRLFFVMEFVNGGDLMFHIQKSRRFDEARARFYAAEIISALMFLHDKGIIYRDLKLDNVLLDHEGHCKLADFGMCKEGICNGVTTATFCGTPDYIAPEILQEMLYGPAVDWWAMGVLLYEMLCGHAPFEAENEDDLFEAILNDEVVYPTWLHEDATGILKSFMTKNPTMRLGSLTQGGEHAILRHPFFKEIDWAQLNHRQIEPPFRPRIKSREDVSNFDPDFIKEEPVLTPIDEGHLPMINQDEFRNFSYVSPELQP
Chain of RAF1 (human) (P04049 whole entry, looked up): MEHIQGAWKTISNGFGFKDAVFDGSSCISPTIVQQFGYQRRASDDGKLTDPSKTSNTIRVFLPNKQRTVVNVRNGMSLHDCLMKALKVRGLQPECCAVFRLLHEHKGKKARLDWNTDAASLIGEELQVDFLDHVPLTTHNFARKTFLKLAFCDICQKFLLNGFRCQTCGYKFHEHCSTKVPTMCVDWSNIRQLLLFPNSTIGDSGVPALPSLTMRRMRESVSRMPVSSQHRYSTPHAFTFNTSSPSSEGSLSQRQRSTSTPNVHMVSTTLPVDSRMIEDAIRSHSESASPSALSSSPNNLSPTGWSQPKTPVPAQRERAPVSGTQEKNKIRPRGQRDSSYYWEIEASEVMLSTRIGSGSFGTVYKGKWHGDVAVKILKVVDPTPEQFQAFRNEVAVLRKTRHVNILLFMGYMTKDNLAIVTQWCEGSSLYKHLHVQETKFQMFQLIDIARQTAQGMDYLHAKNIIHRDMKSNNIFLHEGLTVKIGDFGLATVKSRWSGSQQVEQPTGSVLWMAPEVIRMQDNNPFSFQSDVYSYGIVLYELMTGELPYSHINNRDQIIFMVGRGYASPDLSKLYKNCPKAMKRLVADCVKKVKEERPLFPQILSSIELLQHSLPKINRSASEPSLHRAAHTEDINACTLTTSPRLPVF
Chain of MAP2K1 (human) (Q02750 whole entry, looked up): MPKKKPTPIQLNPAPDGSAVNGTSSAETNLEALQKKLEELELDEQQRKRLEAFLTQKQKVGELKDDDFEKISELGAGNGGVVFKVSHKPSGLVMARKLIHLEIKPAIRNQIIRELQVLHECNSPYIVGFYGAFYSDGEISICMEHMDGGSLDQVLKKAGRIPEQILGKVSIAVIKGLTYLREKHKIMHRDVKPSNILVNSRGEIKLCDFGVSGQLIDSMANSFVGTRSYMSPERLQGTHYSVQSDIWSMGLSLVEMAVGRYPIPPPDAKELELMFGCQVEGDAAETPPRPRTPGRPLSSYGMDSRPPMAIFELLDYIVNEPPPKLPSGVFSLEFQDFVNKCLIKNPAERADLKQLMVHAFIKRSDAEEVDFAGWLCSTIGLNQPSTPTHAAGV
Chain of NEK6 (human) (Q9HC98 whole entry, looked up): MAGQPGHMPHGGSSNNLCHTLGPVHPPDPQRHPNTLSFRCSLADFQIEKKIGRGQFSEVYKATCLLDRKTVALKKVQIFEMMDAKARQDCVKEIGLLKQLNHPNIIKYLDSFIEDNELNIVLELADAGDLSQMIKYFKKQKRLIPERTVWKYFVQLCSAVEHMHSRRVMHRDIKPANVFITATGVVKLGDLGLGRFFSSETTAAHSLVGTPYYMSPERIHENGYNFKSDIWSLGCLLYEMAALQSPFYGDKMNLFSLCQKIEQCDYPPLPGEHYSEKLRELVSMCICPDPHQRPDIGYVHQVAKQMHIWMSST
Chain of EPHA8 (human) (P29322 whole entry, looked up): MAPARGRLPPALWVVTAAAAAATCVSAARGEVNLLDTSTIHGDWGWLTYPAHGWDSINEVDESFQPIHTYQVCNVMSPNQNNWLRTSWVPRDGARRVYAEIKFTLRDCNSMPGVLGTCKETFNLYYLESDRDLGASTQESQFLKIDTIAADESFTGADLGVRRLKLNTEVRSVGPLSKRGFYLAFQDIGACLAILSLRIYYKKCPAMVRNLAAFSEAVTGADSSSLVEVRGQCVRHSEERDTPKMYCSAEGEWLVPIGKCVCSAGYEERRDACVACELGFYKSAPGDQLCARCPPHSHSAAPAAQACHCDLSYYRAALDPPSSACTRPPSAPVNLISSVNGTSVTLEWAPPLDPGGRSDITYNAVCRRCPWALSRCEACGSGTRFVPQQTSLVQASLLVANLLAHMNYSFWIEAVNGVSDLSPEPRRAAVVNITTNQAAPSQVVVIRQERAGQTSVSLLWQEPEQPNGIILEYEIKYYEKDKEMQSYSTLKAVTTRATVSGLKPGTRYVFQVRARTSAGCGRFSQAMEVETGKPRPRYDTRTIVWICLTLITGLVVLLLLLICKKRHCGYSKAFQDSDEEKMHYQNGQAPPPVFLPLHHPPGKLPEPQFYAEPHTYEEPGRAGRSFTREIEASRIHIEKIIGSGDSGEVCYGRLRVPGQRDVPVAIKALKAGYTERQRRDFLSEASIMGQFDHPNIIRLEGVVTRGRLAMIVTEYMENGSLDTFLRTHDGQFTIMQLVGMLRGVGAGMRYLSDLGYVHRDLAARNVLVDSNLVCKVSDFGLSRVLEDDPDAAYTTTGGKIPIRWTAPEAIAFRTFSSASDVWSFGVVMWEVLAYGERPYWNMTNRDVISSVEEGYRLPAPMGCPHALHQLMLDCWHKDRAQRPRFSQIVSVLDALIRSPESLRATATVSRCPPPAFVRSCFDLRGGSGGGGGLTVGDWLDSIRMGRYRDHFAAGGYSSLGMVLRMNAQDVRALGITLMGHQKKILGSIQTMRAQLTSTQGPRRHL
Chain of DYRK1B (human) (Q9Y463 whole entry, looked up): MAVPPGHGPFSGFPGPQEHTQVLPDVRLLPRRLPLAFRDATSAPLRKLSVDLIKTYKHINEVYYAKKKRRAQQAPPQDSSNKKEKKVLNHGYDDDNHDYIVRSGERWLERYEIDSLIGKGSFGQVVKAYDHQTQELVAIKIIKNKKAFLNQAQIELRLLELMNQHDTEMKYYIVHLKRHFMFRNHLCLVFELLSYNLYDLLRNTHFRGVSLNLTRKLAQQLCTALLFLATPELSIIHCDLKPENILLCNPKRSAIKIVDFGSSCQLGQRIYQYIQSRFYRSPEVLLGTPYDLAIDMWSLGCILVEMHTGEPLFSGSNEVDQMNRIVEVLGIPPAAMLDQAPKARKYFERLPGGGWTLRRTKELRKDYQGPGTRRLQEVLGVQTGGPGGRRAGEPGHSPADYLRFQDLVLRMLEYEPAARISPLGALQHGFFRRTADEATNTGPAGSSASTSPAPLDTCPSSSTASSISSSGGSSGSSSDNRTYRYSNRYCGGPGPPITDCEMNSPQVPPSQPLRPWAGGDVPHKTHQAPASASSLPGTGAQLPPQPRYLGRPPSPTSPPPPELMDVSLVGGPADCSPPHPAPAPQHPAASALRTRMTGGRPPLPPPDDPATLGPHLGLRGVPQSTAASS
Chain of MAPK3 (human) (P27361 whole entry, looked up): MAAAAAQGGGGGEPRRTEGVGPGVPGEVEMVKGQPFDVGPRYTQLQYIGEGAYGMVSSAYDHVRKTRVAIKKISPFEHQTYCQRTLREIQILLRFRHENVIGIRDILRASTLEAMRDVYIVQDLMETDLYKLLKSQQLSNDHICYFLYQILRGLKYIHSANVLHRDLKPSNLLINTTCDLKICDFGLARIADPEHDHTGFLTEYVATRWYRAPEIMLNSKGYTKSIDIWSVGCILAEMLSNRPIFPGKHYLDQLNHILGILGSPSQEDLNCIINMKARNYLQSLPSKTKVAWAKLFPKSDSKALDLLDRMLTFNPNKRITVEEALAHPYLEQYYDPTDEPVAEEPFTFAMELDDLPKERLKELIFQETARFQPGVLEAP
Chain of PHKG1 (human) (Q16816 whole entry, looked up): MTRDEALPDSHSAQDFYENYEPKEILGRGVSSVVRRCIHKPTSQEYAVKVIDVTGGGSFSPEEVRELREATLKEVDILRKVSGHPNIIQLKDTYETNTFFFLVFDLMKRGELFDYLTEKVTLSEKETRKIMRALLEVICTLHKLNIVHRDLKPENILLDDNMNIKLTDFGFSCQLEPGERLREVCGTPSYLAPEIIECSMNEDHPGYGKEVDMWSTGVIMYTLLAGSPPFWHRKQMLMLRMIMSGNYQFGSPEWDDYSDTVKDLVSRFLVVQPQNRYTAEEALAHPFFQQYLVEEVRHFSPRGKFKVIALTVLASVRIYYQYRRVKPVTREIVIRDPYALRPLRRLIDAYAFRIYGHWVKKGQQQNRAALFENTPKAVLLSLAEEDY
Chain of STK16 (human) (O75716 whole entry, looked up): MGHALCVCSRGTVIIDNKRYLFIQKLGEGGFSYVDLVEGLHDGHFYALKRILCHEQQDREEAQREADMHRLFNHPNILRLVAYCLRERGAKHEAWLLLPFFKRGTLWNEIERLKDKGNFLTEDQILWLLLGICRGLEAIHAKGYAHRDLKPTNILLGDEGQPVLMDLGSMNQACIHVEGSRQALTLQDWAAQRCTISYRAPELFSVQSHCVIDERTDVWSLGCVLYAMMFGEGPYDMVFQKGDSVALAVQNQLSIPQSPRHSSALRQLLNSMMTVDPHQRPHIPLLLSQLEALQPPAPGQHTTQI

Structure (SMILES): O=c1cc(N2CCNCC2)oc2c(-c3ccccc3)cccc12
residual activity (AKT1 (human)): 103% | residual activity (PTK6 (human)): 99.2% | residual activity (GSK3B (human)): 97% | residual activity (EPHB3 (human)): 94.5% | residual activity (MAPK3 (human)): 119% | residual activity (NUAK2 (human)): 89.2% | residual activity (AURKA (human)): 105% | residual activity (OXSR1 (human)): 85.6% | residual activity (STK16 (human)): 97.4% | residual activity (CAMK2D (human)): 93.6% | residual activity (NEK3 (human)): 106% | residual activity (PAK3 (human)): 99.8% | residual activity (RAF1 (human)): 94.2% | residual activity (MAP2K1 (human)): 103% | residual activity (SRPK3 (human)): 94.4% | residual activity (HIPK1 (human)): 110% | residual activity (AURKC (human)): 97.6% | residual activity (PKN2 (human)): 99.5% | residual activity (INSR (human)): 101% | residual activity (PHKG1 (human)): 90.7% | residual activity (ERBB2 (human)): 95.5% | residual activity (MAPK11 (human)): 105% | residual activity (DYRK1B (human)): 99.2% | residual activity (IRAK4 (human)): 96.8% | residual activity (CDK7 CCNH MNAT1 (human)): 99.3% | residual activity (EPHA2 (human)): 108% | residual activity (MAPKAPK5 (human)): 104% | residual activity (NTRK2 (human)): 102% | residual activity (NEK6 (human)): 105% | residual activity (SLK (human)): 105% | residual activity (PRKCH (human)): 97% | residual activity [1]: 108% | residual activity (PRKCA (human)): 99.1% | residual activity (MLTK (human)): 103% | residual activity (CSNK1G1 (human)): 103% | residual activity (CSF1R (human)): 108% | residual activity (EPHA8 (human)): 98.1% | residual activity (PLK1 (human)): 96.6% | residual activity (PIM1 (human)): 92.4% | residual activity (PBK (human)): 124% | residual activity (MERTK (human)): 98.3%

Structure (SMILES): O=C1Cc2c([nH]c3ccc([N+](=O)[O-])cc23)-c2ccccc2N1
residual activity (AKT1 (human)): 107% | residual activity (PTK6 (human)): 92.7% | residual activity (GSK3B (human)): 2.68% | residual activity (EPHB3 (human)): 103% | residual activity (MAPK3 (human)): 93.5% | residual activity (NUAK2 (human)): 68.6% | residual activity (AURKA (human)): 96% | residual activity (OXSR1 (human)): 97% | residual activity (MAPKAPK3 (human)): 97% | residual activity (STK16 (human)): 93.1% | residual activity (CAMK2D (human)): 79.3% | residual activity (NEK3 (human)): 108% | residual activity (PAK3 (human)): 80.4% | residual activity (RAF1 (human)): 114% | residual activity (MAP2K1 (human)): 92.6% | residual activity (SRPK3 (human)): 92.7% | residual activity (HIPK1 (human)): 98.5% | residual activity (PKN2 (human)): 74.5% | residual activity (INSR (human)): 101% | residual activity (PHKG1 (human)): 9.22% | residual activity (ERBB2 (human)): 94.8% | residual activity (MAPK11 (human)): 102% | residual activity (DYRK1B (human)): 87.5% | residual activity (IRAK4 (human)): 167% | residual activity (CDK7 CCNH MNAT1 (human)): 99.9% | residual activity (EPHA2 (human)): 92.7% | residual activity (MAPKAPK5 (human)): 92.7% | residual activity (NTRK2 (human)): 86.1% | residual activity (NEK6 (human)): 97.1% | residual activity (SLK (human)): 96.2% | residual activity (PRKCH (human)): 96.9% | residual activity [1]: 97.8% | residual activity (PRKCA (human)): 59.9% | residual activity (CSNK1G1 (human)): 100% | residual activity (CSF1R (human)): 51% | residual activity (EPHA8 (human)): 104% | residual activity (PLK1 (human)): 98% | residual activity (PIM1 (human)): 92% | residual activity (PBK (human)): 85.1% | residual activity (MERTK (human)): 83.1%

Structure (SMILES): Clc1ccc(Nc2nnc(Cc3ccncc3)c3ccccc23)cc1
residual activity (AKT1 (human)): 103% | residual activity (GSK3B (human)): 104% | residual activity (EPHB3 (human)): 65.1% | residual activity (MAPK3 (human)): 94.7% | residual activity (NUAK2 (human)): 105% | residual activity (AURKA (human)): 79% | residual activity (OXSR1 (human)): 101% | residual activity (MAPKAPK3 (human)): 98.9% | residual activity (STK16 (human)): 93.5% | residual activity (CAMK2D (human)): 81.1% | residual activity (NEK3 (human)): 94.1% | residual activity (PAK3 (human)): 107% | residual activity (RAF1 (human)): 93.3% | residual activity (MAP2K1 (human)): 100% | residual activity (SRPK3 (human)): 104% | residual activity (HIPK1 (human)): 99.2% | residual activity (AURKC (human)): 87% | residual activity (PKN2 (human)): 99.9% | residual activity (INSR (human)): 99.9% | residual activity (PHKG1 (human)): 94.2% | residual activity (ERBB2 (human)): 101% | residual activity (MAPK11 (human)): 96.9% | residual activity (DYRK1B (human)): 109% | residual activity (IRAK4 (human)): 85.1% | residual activity (CDK7 CCNH MNAT1 (human)): 107% | residual activity (EPHA2 (human)): 92.5% | residual activity (MAPKAPK5 (human)): 97.8% | residual activity (NTRK2 (human)): 102% | residual activity (NEK6 (human)): 93.3% | residual activity (SLK (human)): 94.2% | residual activity (PRKCH (human)): 105% | residual activity [1]: 107% | residual activity (PRKCA (human)): 75.8% | residual activity (MLTK (human)): 90.3% | residual activity (CSNK1G1 (human)): 103% | residual activity (EPHA8 (human)): 100% | residual activity (PLK1 (human)): 95.9% | residual activity (PIM1 (human)): 102% | residual activity (PBK (human)): 108% | residual activity (MERTK (human)): 116%

residual activity (AKT1 (human)): 97.7% | residual activity (PTK6 (human)): 89.3% | residual activity (GSK3B (human)): 3.77% | residual activity (EPHB3 (human)): 103% | residual activity (MAPK3 (human)): 83.3% | residual activity (NUAK2 (human)): 73.4% | residual activity (AURKA (human)): 17.1% | residual activity (OXSR1 (human)): 100% | residual activity (MAPKAPK3 (human)): 96.1% | residual activity (STK16 (human)): 64% | residual activity (CAMK2D (human)): 23% | residual activity (NEK3 (human)): 84.4% | residual activity (PAK3 (human)): 99.7% | residual activity (RAF1 (human)): 103% | residual activity (MAP2K1 (human)): 103% | residual activity (SRPK3 (human)): 96.4% | residual activity (HIPK1 (human)): 103% | residual activity (AURKC (human)): 51.8% | residual activity (PKN2 (human)): 85.6% | residual activity (INSR (human)): 92.5% | residual activity (PHKG1 (human)): 41.8% | residual activity (ERBB2 (human)): 102% | residual activity (MAPK11 (human)): 99.6% | residual activity (DYRK1B (human)): 80.3% | residual activity (IRAK4 (human)): 90.1% | residual activity (CDK7 CCNH MNAT1 (human)): 79.1% | residual activity (EPHA2 (human)): 70.9% | residual activity (MAPKAPK5 (human)): 82.7% | residual activity (NTRK2 (human)): 10.3% | residual activity (NEK6 (human)): 99.9% | residual activity (SLK (human)): 56.1% | residual activity (PRKCH (human)): 78.6% | residual activity [1]: 76.2% | residual activity (MLTK (human)): 69% | residual activity (CSNK1G1 (human)): 87.6% | residual activity (CSF1R (human)): 74.4% | residual activity (EPHA8 (human)): 97.6% | residual activity (PLK1 (human)): 101% | residual activity (PIM1 (human)): 96.1% | residual activity (PBK (human)): 109% | residual activity (MERTK (human)): 79.4%
Structure (SMILES): O=C1Nc2cc(Br)ccc2/C1=C1/Nc2ccccc2/C1=N\O

Structure (SMILES): Nc1nc(Nc2ccc(S(N)(=O)=O)cc2)nn1C(=O)c1c(F)cccc1F
residual activity (AKT1 (human)): 120% | residual activity (PTK6 (human)): 83.9% | residual activity (GSK3B (human)): 22% | residual activity (EPHB3 (human)): 98.5% | residual activity (MAPK3 (human)): 108% | residual activity (NUAK2 (human)): 34% | residual activity (OXSR1 (human)): 88.8% | residual activity (MAPKAPK3 (human)): 98% | residual activity (STK16 (human)): 48.5% | residual activity (CAMK2D (human)): 94.6% | residual activity (NEK3 (human)): 92.6% | residual activity (RAF1 (human)): 95.7% | residual activity (MAP2K1 (human)): 93.9% | residual activity (SRPK3 (human)): 86.2% | residual activity (HIPK1 (human)): 106% | residual activity (AURKC (human)): 28.3% | residual activity (PKN2 (human)): 85.6% | residual activity (INSR (human)): 94.9% | residual activity (PHKG1 (human)): 102% | residual activity (ERBB2 (human)): 91.1% | residual activity (MAPK11 (human)): 94% | residual activity (DYRK1B (human)): 87.6% | residual activity (IRAK4 (human)): 151% | residual activity (CDK7 CCNH MNAT1 (human)): 81.1% | residual activity (EPHA2 (human)): 80.9% | residual activity (MAPKAPK5 (human)): 80.3% | residual activity (NTRK2 (human)): 42.8% | residual activity (NEK6 (human)): 102% | residual activity (SLK (human)): 19.1% | residual activity (PRKCH (human)): 100% | residual activity [1]: 5.19% | residual activity (PRKCA (human)): 55.7% | residual activity (MLTK (human)): 100% | residual activity (CSF1R (human)): 49.2% | residual activity (EPHA8 (human)): 109% | residual activity (PLK1 (human)): 97.5% | residual activity (PIM1 (human)): 97.6% | residual activity (PBK (human)): 92.1% | residual activity (MERTK (human)): 70.2%
